The subject of one experiment is Peronospora parasitica. The experiment can be described thus: In vivo test against Peronospora parasitica (crucifer downy mildew). More on the design: species or system Peronospora parasitica on cabbage plants (Eminence variety). Conditions: cabbage, spray 24 h before contamination, grading 5 days. The procedure: Spirotetramat is prepared by dilution of the SC100 g/l formulation in water to obtain the desired active material concentration.
Cabbage plants (Eminence variety) in starter cups, sown on a 50/50 peat soil-pozzolana substrate and grown at 18-20° C., are treated at the cotyledon stage by spraying with the aqueous suspension described above at 500, 125 and 31 mg/l.
Plants, used as controls, are treated with an aqueous solution not containing the active material.
After 24 hours, the plants are contaminated by spraying them with an aqueous suspension of Peronospora parasitica spores (37 500 spores per ml). The spores are collected from infected plants.
The contaminated cabbage plants are incubated for 5 days at 20° C., under a humid atmosphere.
(§1) Grading is carried out 5 days after the contamination, in comparison with the control plants.

For experiment [1], the system named is Phytophthora infestans. It is filed as in vivo, Phytophthora infestans on potato plants (variety Bintje). Conditions: for Efficacy (Abbott formula): Trial 1, potato, spray 24 h before inoculation, notation 5 days after contamination.
The subject of experiment [2] is Phytophthora infestans. The class given is in vivo, Phytophthora infestans on tomato plants (variety Rentita). Conditions: Trial 3, tomato, preventive 24 h, notation 6 days after contamination.
In another experiment the test system is Plasmopara viticola. The experiment can be described thus: In vivo test against Plasmopara viticola (vine downy mildew). To be noted: from 25 to 200 g a.i./ha, spray 24 h before inoculation, grading 5 days (FIG. 4). How it is done:
The treatment is done by spray application in a spray cabinet at 500 L/ha with the aqueous dilutions of spirotetramat SC100 g/l formulation from 25 to 200 g a.i./ha.
The treatment is applied on six vine plants (Cabernet sauvignon variety, 9 weeks old) 24 hours and the plants are placed in a climatic chamber at 18° C. before inoculation.
The inoculation consists on spraying the sporangia suspension calibrated at 100 000 sporangia/ml, at the lower leaf face of each plant 24 h after the treatment and the plants are then placed in a climatic chamber at 18° C. day and night with saturate humidity until the symptoms assessment.
as §1

Read-outs that look alike come from different tables or passages of the source.

`CCOC(=O)OC1=C(c2cc(C)ccc2C)C(=O)N[C@]12CC[C@@H](OC)CC2` [spirotetramat]: the “Activity on Peronospora parasitica” value in the experiment on Peronospora parasitica (31 mg/l active ingredient), with Peronospora parasitica (125 mg/l active ingredient) and with Peronospora parasitica (500 mg/l active ingredient) was 100% each time. Moreover, the results for the “Efficacy (Abbott formula)” value with Phytophthora infestans [1] (100 g a.i./ha) and with Phytophthora infestans [1] (1000 g a.i./ha) were 86% and 99%, respectively. The “Efficacy compared with standards” value with Phytophthora infestans [1] (Trial 2, potato, around 150 g a.i./ha, high disease pressure, preventive 24 h (FIG. 2)) is “equivalent to the best standard”. Also, the “Efficacy, disease controlled” value with Phytophthora infestans [2] (100 g a.i./ha) and in the experiment on Phytophthora infestans [2] (200 g a.i./ha) was 95% in each case. Further, the “Activity against Plasmopara viticola vine downy mildew” value in the experiment with Plasmopara viticola stood at 100%.

Source of the values: patent US20140336233A1 (priority 2011, published 2014).
